Test results from patent publication US11453703B2, “Heterotandem bicyclic peptide complexes” (BicycleTX Limited, priority 2018, dated 2022).

Key:
CD137 [1] = molecular target: T1, CD137 (Homo sapiens, UniProt Q07011); experiment: CD137 reporter assay, co-culture with EphA2 tumour cells; type: cell-based; design: host or cells: Jurkat reporter cells; conditions: tumour target EphA2, co-culture with SC-OV-3, 6 h
How it was run: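 Jurkat CD137 reporter cells co-cultured with tumour cells and serially diluted test articles in RPMI-1640 + 1% FBS, 6 h at 37 °C, 5% CO2. Luminescence read after Bio-Glo; fold change over cells-only background fitted log(agonist) vs response for EC50 (nM) and maximal fold induction.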

human EphA2 protein = human EphA2 protein (Homo sapiens, UniProt P29317); experiment: EphA2 Biacore (SPR) binding assay; conditions: biotinylated human EphA2, 25° C.
Sequence of human EphA2 protein (P29317 24-976): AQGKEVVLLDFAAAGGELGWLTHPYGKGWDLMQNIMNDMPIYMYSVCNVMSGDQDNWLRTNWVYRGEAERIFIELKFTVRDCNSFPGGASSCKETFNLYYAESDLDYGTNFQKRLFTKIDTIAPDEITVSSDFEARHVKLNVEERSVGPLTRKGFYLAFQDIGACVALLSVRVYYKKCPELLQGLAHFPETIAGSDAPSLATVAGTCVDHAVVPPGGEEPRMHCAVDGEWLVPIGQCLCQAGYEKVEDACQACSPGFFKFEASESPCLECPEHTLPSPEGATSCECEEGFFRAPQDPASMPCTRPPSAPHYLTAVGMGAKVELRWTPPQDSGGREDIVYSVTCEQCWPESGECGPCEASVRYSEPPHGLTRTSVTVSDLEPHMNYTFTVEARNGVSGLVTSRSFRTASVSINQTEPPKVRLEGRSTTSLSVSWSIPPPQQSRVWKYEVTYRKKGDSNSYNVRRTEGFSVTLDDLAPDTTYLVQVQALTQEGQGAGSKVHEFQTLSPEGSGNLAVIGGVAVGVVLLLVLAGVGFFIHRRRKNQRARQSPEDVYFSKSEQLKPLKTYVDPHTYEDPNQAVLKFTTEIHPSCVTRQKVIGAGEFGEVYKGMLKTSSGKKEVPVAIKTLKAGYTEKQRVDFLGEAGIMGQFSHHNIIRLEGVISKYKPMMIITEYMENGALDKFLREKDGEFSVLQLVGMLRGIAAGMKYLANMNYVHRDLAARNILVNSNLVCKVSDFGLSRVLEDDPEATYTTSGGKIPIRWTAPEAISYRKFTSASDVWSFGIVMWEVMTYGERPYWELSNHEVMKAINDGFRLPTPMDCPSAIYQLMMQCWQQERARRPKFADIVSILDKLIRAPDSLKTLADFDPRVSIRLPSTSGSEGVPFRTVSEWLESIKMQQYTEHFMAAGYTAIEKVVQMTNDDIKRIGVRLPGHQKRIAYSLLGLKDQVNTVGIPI
Method: Biacore experiments were performed to determine ka (M^−1s^−1), kd (s^−1), KD (nM) values of heterotandem peptides binding to human EphA2 protein.
EphA2 were biotinylated with EZ-Link™ Sulfo-NHS-LC-Biotin for 1 hour in 4 mM sodium acetate, 100 mM NaCl, pH 5.4 with a 3× molar excess of biotin over protein. The degree of labelling was determined using a Fluorescence Biotin Quantification Kit (Thermo) after dialysis of the reaction mixture into PBS. For analysis of peptide binding, a Biacore T200 instrument was used with a XanTec CMD500D chip. Streptavidin was immobilized on the chip using standard amine-coupling chemistry at 25° C. with HBS-N (10 mM HEPES, 0.15 M NaCl, pH 7.4) as the running buffer. Briefly, the carboxymethyl dextran surface was activated with a 7 min injection of a 1:1 ratio of 0.4 M 1-ethyl-3-(3-dimethylaminopropyl) carbodiimide hydrochloride (EDC)/0.1 M N-hydroxy succinimide (NHS) at a flow rate of 10 it/min. For capture of streptavidin, the protein was diluted to 0.2 mg/ml in 10 mM sodium acetate (pH 4.5) and captured by injecting 120 μl onto the activated chip surface. Residual activated groups were blocked with a 7 min injection of 1 M ethanolamine (pH 8.5):HBS-N (1:1). Buffer was changed to PBS/0.05% Tween 20 and biotinylated EphA2 was captured to a level of 500-1500 RU using a dilution of protein to 0.2 μM in buffer. A dilution series of the peptides was prepared in this buffer with a final DMSO concentration of 0.5% with a top peptide concentration was 50 or 100 nM and 6 further 2-fold dilutions. The SPR analysis was run at 25° C. at a flow rate of 90 μl/min with 60 seconds association and 900-1200 seconds dissociation. Data were corrected for DMSO excluded volume effects. All data were double-referenced for blank injections and reference surface using standard processing procedures and data processing and kinetic fitting were performed using Scrubber software, version 2.0c (BioLogic Software). Data were fitted using simple 1:1 binding model allowing for mass transport effects where appropriate.

CD137 [2] = molecular target: T1, CD137; experiment: CD137 Biacore (SPR) binding assay; design: purchased R&D systems; conditions: biotinylated human CD137, 25° C.
Method: Biacore experiments were performed to determine ka (M^−1s^−1), kd (s^−1), KD (nM) values of heterotandem peptides binding to human CD137 protein. […] The protein was desalted to remove uncoupled biotin using spin columns into PBS.
For analysis of peptide binding, a Biacore T200 or a Biacore 3000 instrument was used with a XanTec CMD500D chip. Streptavidin was immobilized on the chip using standard amine-coupling chemistry at 25° C. with HBS-N (10 mM HEPES, 0.15 M NaCl, pH 7.4) as the running buffer. Briefly, the carboxymethyl dextran surface was activated with a 7 min injection of a 1:1 ratio of 0.4 M 1-ethyl-3-(3-dimethylaminopropyl) carbodiimide hydrochloride (EDC)/0.1 M N-hydroxy succinimide (NHS) at a flow rate of 10 μl/min. For capture of streptavidin, the protein was diluted to 0.2 mg/ml in 10 mM sodium acetate (pH 4.5) and captured by injecting 120 μl of onto the activated chip surface. Residual activated groups were blocked with a 7 min injection of 1 M ethanolamine (pH 8.5) and biotinylated CD137 captured to a level of 270-1500 RU. Buffer was changed to PBS/0.05% Tween 20 and a dilution series of the peptides was prepared in this buffer with a final DMSO concentration of 0.5%. The top peptide concentration was 500 nM with 6 further 2-fold or 3-fold dilutions. The SPR analysis was run at 25° C. at a flow rate of 90 μl/min with 60 seconds association and 900 seconds dissociation. After each cycle a regeneration step (10 μl of 10 mM glycine pH 2) was employed. Data were corrected for DMSO excluded volume effects as needed. All data were double-referenced for blank injections and reference surface using standard processing procedures and data processing and kinetic fitting were performed using Scrubber software, version 2.0c (BioLogic Software). Data were fitted using simple 1:1 binding model allowing for mass transport effects where appropriate.

T1 sequence (Q07011 24-255): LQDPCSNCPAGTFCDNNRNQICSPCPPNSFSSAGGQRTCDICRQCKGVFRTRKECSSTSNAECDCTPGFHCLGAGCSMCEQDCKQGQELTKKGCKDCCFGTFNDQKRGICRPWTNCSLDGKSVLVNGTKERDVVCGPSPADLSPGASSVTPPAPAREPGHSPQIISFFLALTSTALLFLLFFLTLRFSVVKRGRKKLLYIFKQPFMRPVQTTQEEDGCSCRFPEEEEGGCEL

Row | SMILES | EC50 (CD137 [1]) | Fold Induction over Background (CD137 [1]) | Kd (human EphA2 protein) | Kd (CD137 [2])
1 | CCCC[C@@H]1NC(=O)[C@H](Cc2ccc(O)cc2)NC(=O)[C@@H]2CCCN2C(=O)[C@H](CC(=O)O)NC(=O)[C@H](C)NC(=O)[C@H](Cc2ccccc2)NC(=O)[C@@H]2CSCCC(=O)N3CN(CN(C3)C(=O)CCSC[C@@H](C(=O)N[C@@H](CNC(=O)CCc3cn(CCCNC(=O)CN(C)C(=O)CN(C)C(=O)CN(C)C(=O)CN(C)C(=O)CN(C)C(=O)CN(C)C(=O)CN(C)C(=O)CN(C)C(=O)CN(C)C(=O)CN(C)C(=O)CN(C)C(=O)CN(C)C(=O)CN(C)C(=O)CN(C)C(=O)CN(C)C(=O)COCCOCCOCCOCCOCCNC(=O)NCCC(=O)N(C)CC(=O)N(C)CC(=O)N(C)CC(=O)N(C)CC(=O)N(C)CC(=O)N(C)CC(=O)N(C)CC(=O)N(C)CC(=O)N(C)CC(=O)N(C)CC(=O)N[C@@H](C)C(=O)N[C@@H](CCCCNC(=N)N)C(=O)N[C@@H](CC(=O)O)C(=O)N[C@H]4CSCCC(=O)N5CN6CN(C5)C(=O)CCSC[C@H](NC(=O)[C@H](CC(C)C)NC(=O)[C@@H]5CCCN5C(=O)[C@H](CC(N)=O)NC(=O)[C@H](C(C)C)NC(=O)[C@H](CC(C)C)NC(=O)[C@@H]5C[C@@H](O)CN5C4=O)C(=O)N[C@@H](CC(C)C)C(=O)N[C@@H](Cc4c[nH]cn4)C(=O)N4CCC[C@H]4C(=O)N[C@H](CC(=O)O)C(=O)N[C@@H](Cc4c[nH]c5ccccc45)C(=O)N[C@@H](CCCCNC(=N)N)C(=O)N[C@H](C(N)=O)CSCCC6=O)nn3)C(N)=O)NC1=O)C(=O)CCSC[C@H](NC(=O)[C@H](C)NC(C)=O)C(=O)N[C@@H]([C@@H](C)CC)C(=O)N[C@@H](CCC(=O)O)C(=O)N[C@@H](CCC(=O)O)C(=O)NCC(=O)N[C@@H](CCC(N)=O)C(=O)N[C@@H](Cc1ccc(O)cc1)C(=O)N2 [BCY9657] | 9 nM | 26 fold | 1.1 nM | 256 nM
2 | CCCC[C@@H]1NC(=O)[C@H](Cc2ccc(O)cc2)NC(=O)[C@@H]2CCCN2C(=O)[C@H](CC(=O)O)NC(=O)[C@H](C)NC(=O)[C@H](Cc2ccccc2)NC(=O)[C@@H]2CSCCC(=O)N3CN(CN(C3)C(=O)CCSC[C@@H](C(=O)N[C@@H](CNC(=O)CCc3cn(CCCNC(=O)CN(C)C(=O)CN(C)C(=O)CN(C)C(=O)CN(C)C(=O)CN(C)C(=O)CN(C)C(=O)CN(C)C(=O)CN(C)C(=O)CN(C)C(=O)CN(C)C(=O)COCCOCCOCCOCCOCCOCCOCCOCCOCCOCCNC(=O)NCCC(=O)N(C)CC(=O)N(C)CC(=O)N(C)CC(=O)N(C)CC(=O)N(C)CC(=O)N(C)CC(=O)N(C)CC(=O)N(C)CC(=O)N(C)CC(=O)N(C)CC(=O)N[C@@H](C)C(=O)N[C@@H](CCCCNC(=N)N)C(=O)N[C@@H](CC(=O)O)C(=O)N[C@H]4CSCCC(=O)N5CN6CN(C5)C(=O)CCSC[C@H](NC(=O)[C@H](CC(C)C)NC(=O)[C@@H]5CCCN5C(=O)[C@H](CC(N)=O)NC(=O)[C@H](C(C)C)NC(=O)[C@H](CC(C)C)NC(=O)[C@@H]5C[C@@H](O)CN5C4=O)C(=O)N[C@@H](CC(C)C)C(=O)N[C@@H](Cc4c[nH]cn4)C(=O)N4CCC[C@H]4C(=O)N[C@H](CC(=O)O)C(=O)N[C@@H](Cc4c[nH]c5ccccc45)C(=O)N[C@@H](CCCCNC(=N)N)C(=O)N[C@H](C(N)=O)CSCCC6=O)nn3)C(N)=O)NC1=O)C(=O)CCSC[C@H](NC(=O)[C@H](C)NC(C)=O)C(=O)N[C@@H]([C@@H](C)CC)C(=O)N[C@@H](CCC(=O)O)C(=O)N[C@@H](CCC(=O)O)C(=O)NCC(=O)N[C@@H](CCC(N)=O)C(=O)N[C@@H](Cc1ccc(O)cc1)C(=O)N2 [BCY9656] | 1.1 nM | 3 fold | 0.75 nM | 159 nM
3 | CCCC[C@@H]1NC(=O)[C@H](Cc2ccc(O)cc2)NC(=O)[C@@H]2CCCN2C(=O)[C@H](CC(=O)O)NC(=O)[C@H](C)NC(=O)[C@H](Cc2ccccc2)NC(=O)[C@@H]2CSCCC(=O)N3CN(CN(C3)C(=O)CCSC[C@@H](C(=O)N[C@@H](CNC(=O)CCc3cn(CCCNC(=O)CN(C)C(=O)CN(C)C(=O)CN(C)C(=O)CN(C)C(=O)CN(C)C(=O)COCCOCCOCCOCCOCCNC(=O)NCCC(=O)N(C)CC(=O)N(C)CC(=O)N(C)CC(=O)N(C)CC(=O)N(C)CC(=O)N(C)CC(=O)N(C)CC(=O)N(C)CC(=O)N(C)CC(=O)N(C)CC(=O)N[C@@H](C)C(=O)N[C@@H](CCCCNC(=N)N)C(=O)N[C@@H](CC(=O)O)C(=O)N[C@H]4CSCCC(=O)N5CN6CN(C5)C(=O)CCSC[C@H](NC(=O)[C@H](CC(C)C)NC(=O)[C@@H]5CCCN5C(=O)[C@H](CC(N)=O)NC(=O)[C@H](C(C)C)NC(=O)[C@H](CC(C)C)NC(=O)[C@@H]5C[C@@H](O)CN5C4=O)C(=O)N[C@@H](CC(C)C)C(=O)N[C@@H](Cc4c[nH]cn4)C(=O)N4CCC[C@H]4C(=O)N[C@H](CC(=O)O)C(=O)N[C@@H](Cc4c[nH]c5ccccc45)C(=O)N[C@@H](CCCCNC(=N)N)C(=O)N[C@H](C(N)=O)CSCCC6=O)nn3)C(N)=O)NC1=O)C(=O)CCSC[C@H](NC(=O)[C@H](C)NC(C)=O)C(=O)N[C@@H]([C@@H](C)CC)C(=O)N[C@@H](CCC(=O)O)C(=O)N[C@@H](CCC(=O)O)C(=O)NCC(=O)N[C@@H](CCC(N)=O)C(=O)N[C@@H](Cc1ccc(O)cc1)C(=O)N2 [BCY9658] | 6.2 nM | 11 fold | 1.9 nM | 152 nM
4 | CCCC[C@@H]1NC(=O)[C@H](Cc2ccc(O)cc2)NC(=O)[C@@H]2CCCN2C(=O)[C@H](CC(=O)O)NC(=O)[C@H](C)NC(=O)[C@H](Cc2ccccc2)NC(=O)[C@@H]2CSCCC(=O)N3CN(CN(C3)C(=O)CCSC[C@@H](C(=O)N[C@@H](CNC(=O)CCc3cn(CCOCCOCCOCCOCCOCCNC(=O)NCCC(=O)N(C)CC(=O)N(C)CC(=O)N(C)CC(=O)N(C)CC(=O)N(C)CC(=O)N(C)CC(=O)N(C)CC(=O)N(C)CC(=O)N(C)CC(=O)N(C)CC(=O)N[C@@H](C)C(=O)N[C@@H](CCCCNC(=N)N)C(=O)N[C@@H](CC(=O)O)C(=O)N[C@H]4CSCCC(=O)N5CN6CN(C5)C(=O)CCSC[C@H](NC(=O)[C@H](CC(C)C)NC(=O)[C@@H]5CCCN5C(=O)[C@H](CC(N)=O)NC(=O)[C@H](C(C)C)NC(=O)[C@H](CC(C)C)NC(=O)[C@@H]5C[C@@H](O)CN5C4=O)C(=O)N[C@@H](CC(C)C)C(=O)N[C@@H](Cc4c[nH]cn4)C(=O)N4CCC[C@H]4C(=O)N[C@H](CC(=O)O)C(=O)N[C@@H](Cc4c[nH]c5ccccc45)C(=O)N[C@@H](CCCCNC(=N)N)C(=O)N[C@H](C(N)=O)CSCCC6=O)nn3)C(N)=O)NC1=O)C(=O)CCSC[C@H](NC(=O)[C@H](C)NC(C)=O)C(=O)N[C@@H]([C@@H](C)CC)C(=O)N[C@@H](CCC(=O)O)C(=O)N[C@@H](CCC(=O)O)C(=O)NCC(=O)N[C@@H](CCC(N)=O)C(=O)N[C@@H](Cc1ccc(O)cc1)C(=O)N2 [BCY9659] | 9.9 nM | 7 fold | 1.03 nM | 88.1 nM
